Experimental findings from BindingDB's records for doi:10.1016/j.ejphar.2004.03.050 (Memorial Sloan-Kettering Cancer Center, 2004) are described below.

The target in one assay is Mu-type opioid receptor (Bos taurus, UniProt P79350).
Another assay concerns the target Opioid receptor delta 1 (Bos taurus, UniProt F1N083).

pKi: −log10 of the molar value. Where “and” joins values, the source holds several entries; their conditions need not be identical. Equal values may be shown once.

Chain of Mu-type opioid receptor (P79350 whole entry): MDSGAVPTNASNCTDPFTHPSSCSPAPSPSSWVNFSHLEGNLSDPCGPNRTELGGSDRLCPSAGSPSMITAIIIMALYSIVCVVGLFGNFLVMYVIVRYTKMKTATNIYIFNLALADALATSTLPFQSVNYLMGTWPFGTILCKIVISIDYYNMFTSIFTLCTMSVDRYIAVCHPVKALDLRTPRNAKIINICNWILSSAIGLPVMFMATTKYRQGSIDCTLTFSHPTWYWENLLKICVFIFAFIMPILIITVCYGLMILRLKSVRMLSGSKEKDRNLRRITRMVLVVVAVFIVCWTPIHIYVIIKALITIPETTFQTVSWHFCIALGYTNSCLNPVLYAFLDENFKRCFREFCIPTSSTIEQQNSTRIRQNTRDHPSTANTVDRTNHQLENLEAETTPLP
Chain of Opioid receptor delta 1 (F1N083 whole entry): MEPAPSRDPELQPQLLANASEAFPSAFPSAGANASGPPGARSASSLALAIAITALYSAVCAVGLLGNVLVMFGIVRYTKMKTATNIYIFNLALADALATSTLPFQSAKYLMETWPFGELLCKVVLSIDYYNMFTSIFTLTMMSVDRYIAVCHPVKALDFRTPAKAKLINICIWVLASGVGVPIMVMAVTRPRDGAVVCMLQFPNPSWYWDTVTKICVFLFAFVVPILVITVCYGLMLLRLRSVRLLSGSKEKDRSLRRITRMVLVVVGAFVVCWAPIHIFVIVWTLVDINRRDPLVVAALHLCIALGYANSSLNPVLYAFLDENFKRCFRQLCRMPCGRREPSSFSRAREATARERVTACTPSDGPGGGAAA

Regarding `CC(=O)OC1CCC2C3Cc4ccc(O)c5c4C2(CCN3C)C1O5` (configuration not stated) [6-AcDHM], on Mu-type opioid receptor, the pKi is 8.74 and 7.91.
In the case of `CN1CCC23c4c5ccc(O)c4OC2C(O)CCC3C1C5` (configuration not stated) [CAS_509-60-4], on Opioid receptor delta 1, the negative-log Ki (pKi) is 6.00.

The term pKi denotes the negative decadic logarithm of the Ki, by convention in mol/L.
